Converted amounts (≈) assume the structure as drawn.
Assays:
[1] = Metabolic stability in rat liver microsomes; assay type: ADME; conditions: read-out: Stability
[2] = Solubility of the compound by LYSA; assay type: physicochemical
[3] = Metabolic stability in human liver microsomes; assay type: ADME; conditions: read-out: Stability
[4] = Volume of distribution at steady state in mouse at 0.5 mg/kg, iv; assay type: ADME, organism-based; parameters: dose 0.5 mg/kg, route intravenous; conditions: in vivo, read-out: Vdss
[5] = Oral bioavailability in mouse at 30 mg/kg; assay type: ADME, organism-based; conditions: in vivo
[6] = Total plasma clearance in mouse at 0.5 mg/kg, iv; assay type: ADME, organism-based; parameters: dose 0.5 mg/kg, route intravenous
Mus musculus [7] = assay: Dose-normalized AUC in mouse at 30 mg/kg, po; assay type: ADME, organism-based; parameters: dose 30 mg/kg, route oral; conditions: in vivo
[8] = Apparent terminal half life in mouse at 0.5 mg/kg, iv; assay type: ADME, organism-based; parameters: dose 0.5 mg/kg, route intravenous; conditions: in vivo, read-out: betat1/2(app) (converted)
[9] = Cmax in mouse at 30 mg/kg, po; assay type: ADME, organism-based; parameters: dose 30 mg/kg, route oral; conditions: in vivo
Mus musculus [10] = assay: Dose-normalized AUC in mouse at 5 mg/kg, po; assay type: ADME, organism-based; parameters: dose 5 mg/kg, route oral; conditions: in vivo
[11] = Oral bioavailability in mouse at 5 mg/kg; assay type: ADME, organism-based; conditions: in vivo
[12] = Cmax in mouse at 5 mg/kg, po; assay type: ADME, organism-based; parameters: dose 5 mg/kg, route oral; conditions: in vivo
Mus musculus [13] = assay: Dose-normalized AUC in mouse at 10 to 20 mg/kg, po; assay type: ADME, organism-based; parameters: dose 10-20 mg/kg, route oral; conditions: in vivo
[14] = Apparent terminal half life in mouse at 1 mg/kg, iv; assay type: ADME, organism-based; parameters: dose 1 mg/kg, route intravenous; conditions: in vivo, read-out: betat1/2(app) (converted)
[15] = Oral bioavailability in mouse at 10 to 20 mg/kg; assay type: ADME, organism-based; conditions: in vivo
[16] = Total plasma clearance in mouse at 1 mg/kg, iv; assay type: ADME, organism-based; parameters: dose 1 mg/kg, route intravenous
[17] = Volume of distribution at steady state in mouse at 1 mg/kg, iv; assay type: ADME, organism-based; parameters: dose 1 mg/kg, route intravenous; conditions: in vivo, read-out: Vdss

Structure (SMILES)	CLhep predicted [1]	solubility [2]	CLhep predicted [3]	AUC/dose (Mus musculus [13])	half-life [14]	bioavailability [15]	clearance [16]	Vd [17]	other results
Cc1cccc(Nc2cc(N[C@@H]3CCCC[C@@H]3N)nnc2C(N)=O)n1	27 mL/min/kg	471 µg/mL (≈ 1380 µM)	2 mL/min/kg	–	–	–	–	–	–
Cc1nc(Nc2cc(N[C@@H]3CCCC[C@@H]3N)nnc2C(N)=O)ccc1F	18 mL/min/kg	390 µg/mL (≈ 1090 µM)	3 mL/min/kg	–	–	–	–	–	Vd [4]: 1.44 L/kg; bioavailability [5]: 20%; clearance [6]: 5.57 mL/min/kg; AUC/dose (Mus musculus [7]): 568 ng/mL.hr/(mg/kg); half-life [8]: 3.26 h; Cmax [9]: 1560 ng/mL
Cc1ccc(Nc2cc(N[C@@H]3CCCC[C@@H]3N)nnc2C(N)=O)nc1C	23 mL/min/kg	329 µg/mL (≈ 926 µM)	1 mL/min/kg	–	–	–	–	–	AUC/dose (Mus musculus [10]): 25.9 ng/mL.hr/(mg/kg)
Cc1nc(Nc2cc(N[C@@H]3CCCC[C@@H]3N)nnc2C(N)=O)ccc1Cl	20 mL/min/kg	345 µg/mL (≈ 918 µM)	7 mL/min/kg	–	–	–	–	–	Vd [4]: 2.74 L/kg; bioavailability [11]: 51%; bioavailability [5]: 40%; Cmax [12]: 386 ng/mL; clearance [6]: 8.65 mL/min/kg; AUC/dose (Mus musculus [7]): 9753 ng/mL.hr/(mg/kg); half-life [8]: 3.92 h; Cmax [9]: 144 ng/mL; AUC/dose (Mus musculus [10]): 970 ng/mL.hr/(mg/kg)
NC(=O)c1nnc(N[C@@H]2CCCC[C@@H]2N)cc1Nc1ccc2c(n1)CCC2	27 mL/min/kg	404 µg/mL (≈ 1100 µM)	2 mL/min/kg	–	–	–	–	–	–
COc1ccc(Nc2cc(N[C@@H]3CCCC[C@@H]3N)nnc2C(N)=O)nc1OC	14 mL/min/kg	522 µg/mL (≈ 1350 µM)	2 mL/min/kg	–	–	–	–	–	–
COc1ccc(Nc2cc(N[C@@H]3CCOC[C@@H]3N)nnc2C(N)=O)nc1C(C)C	–	–	–	365 ng/mL.hr/(mg/kg)	1.96 h	92%	42.2 mL/min/kg	3.67 L/kg	–
COc1ccc(Nc2cc(NCCN)nnc2C(N)=O)nc1C(C)C	–	–	–	609 ng/mL.hr/(mg/kg)	1.74 h	61%	16.7 mL/min/kg	1.4 L/kg	–
CCCc1nc(Nc2cc(NCCN)nnc2C(N)=O)ccc1OC	–	–	–	1470 ng/mL.hr/(mg/kg)	1.28 h	75%	8.52 mL/min/kg	0.63 L/kg	–

— ChEMBL document CHEMBL3232975, “Using ovality to predict nonmutagenic, orally efficacious pyridazine amides as cell specific spleen tyrosine kinase inhibitors” (J Med Chem, 2014)
